Experimental data: patent US5541208A, “Indole diterpene alkaloid compounds” (priority 1994, dated 1996)
Where two headings read alike, the source gives them in different places.

Legend:
[1] = biological target: T1, maxi-K channels from bovine aortic smooth muscle (Bos taurus, UniProt Q28204); assay: Patch clamp recording of maxi-K channel currents in excised inside-out membrane patches; format: biochemical; conditions: for IC50: table of Example 4, read-out: 50% CHANNEL BLOCK; for block of maxi-K channels relative to Compound C: compared with Compound C; for inhibition at 0.01 µM: pH 7.2
T1 construct: membrane patches excised from cultured bovine aortic smooth muscle cells; endogenous in cells; host or cells: cultured bovine aortic smooth muscle cells
T1 sequence (Q28204 whole entry): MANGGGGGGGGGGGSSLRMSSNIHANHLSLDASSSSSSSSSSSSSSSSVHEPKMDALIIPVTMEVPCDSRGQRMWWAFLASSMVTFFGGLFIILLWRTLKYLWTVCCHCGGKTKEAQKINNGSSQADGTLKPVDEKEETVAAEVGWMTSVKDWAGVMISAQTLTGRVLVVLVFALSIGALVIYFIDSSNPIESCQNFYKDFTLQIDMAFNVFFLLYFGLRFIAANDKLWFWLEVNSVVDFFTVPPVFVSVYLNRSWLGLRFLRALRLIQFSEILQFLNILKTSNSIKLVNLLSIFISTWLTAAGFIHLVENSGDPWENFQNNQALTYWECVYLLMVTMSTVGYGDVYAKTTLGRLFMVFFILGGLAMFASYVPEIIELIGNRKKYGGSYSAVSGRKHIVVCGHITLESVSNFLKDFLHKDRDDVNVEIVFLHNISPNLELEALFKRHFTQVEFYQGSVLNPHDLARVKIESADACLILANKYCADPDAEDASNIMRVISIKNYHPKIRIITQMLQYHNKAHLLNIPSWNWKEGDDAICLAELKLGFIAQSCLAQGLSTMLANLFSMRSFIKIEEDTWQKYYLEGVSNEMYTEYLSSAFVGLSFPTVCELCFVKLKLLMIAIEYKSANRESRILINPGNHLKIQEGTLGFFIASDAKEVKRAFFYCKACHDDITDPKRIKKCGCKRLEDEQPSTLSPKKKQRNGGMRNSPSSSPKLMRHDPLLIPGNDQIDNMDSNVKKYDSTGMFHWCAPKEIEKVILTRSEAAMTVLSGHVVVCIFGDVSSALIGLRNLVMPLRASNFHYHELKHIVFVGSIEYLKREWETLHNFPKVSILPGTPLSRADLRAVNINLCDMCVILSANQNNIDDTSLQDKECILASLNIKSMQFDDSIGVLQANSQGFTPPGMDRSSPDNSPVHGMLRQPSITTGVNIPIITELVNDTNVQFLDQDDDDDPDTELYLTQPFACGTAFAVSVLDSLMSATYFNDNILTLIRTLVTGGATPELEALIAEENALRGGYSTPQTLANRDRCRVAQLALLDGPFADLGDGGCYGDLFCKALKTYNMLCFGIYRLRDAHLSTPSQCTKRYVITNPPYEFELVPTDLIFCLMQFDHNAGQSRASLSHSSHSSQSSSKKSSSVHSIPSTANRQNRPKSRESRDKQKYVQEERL
From the text: Patch clamp recordings of currents flowing through large-conductance calcium-activated potassium (maxi-K) channels were made from membrane patches excised from cultured bovine aortic smooth muscle cells using conventional techniques (Hamill et al., 1981, Pflugers Archiv. 391, 85-100) at room temperature. Glass capillary tubing (Gamer #7052) was pulled in two stages to yield micropipettes with tip diameters of approximately 1-2 microns. Pipettes were typically filled with solutions containing (mM): 150 KCl, 10 Hepes (4-(2-hydroxyethyl)-1-piperazine ethanesulfonic acid), 1 Mg, 0.01 Ca, and adjusted to pH 7.20 with 3.7 mM KOH. After forming a high resistance (>10^9 ohms) seal between the sarcolemmal membrane and the pipette, the pipette was withdrawn from the cell, forming an excised inside-out membrane patch. The patch was excised into a bath solution containing (mM): 150 KCl, 10 Hepes, 5 EGTA (ethylene glycol bis(13-aminoethyl ether)-N,N,N',N'-tetraacetic acid), sufficient Ca to yield a free Ca concentration of 1-5 μM, and the pH was adjusted to 7.2 with 10.5 KOH. For example, 4.568 mM Ca was added to give a free concentration of 2 μM at 22 ° C. An AXOPATCH 1C amplifier (Axon Instruments, Foster City, Calif.) with a CV-4 headstage was used to control the voltage and to measure the currents flowing across the membrane patch. The input to the headstage was connected to the pipette solution with a Ag/AgCl wire, and the amplifier ground was connected to the bath solution with a Ag/AgCl wire covered with a tube filled with agar dissolved in 0.2M KCl. Maxi-K channels were identified by their large single channel conductance (~250 pS) and sensitivity of channel open probability to membrane potential and intracellular calcium concentration.
Data were stored on a RACAL STORE 4DS FM tape recorder (Racal Recorders, Vienna, Va.) or on digital video tape using a video casette recorder after digitizing the signal with VR-10 (Instrutech Corp., Belmont N.Y.) PCM video encoder. The signal was also recorded on chart paper with a GOULD 2400S chart recorder (Gould Inc., Cleveland Ohio). For quantitative analysis, the data was played into a DEC11-73 (Digital Equipment Corp., Maynard, Mass.) after digitization with a DT2782-8D1A analogue to digital converter (Data Translation Inc., Marlboro, Mass.), or played into a Mac IIx or Quadra 700 computer (Apple Computers) after digitization with an ITC-16 interface (Instrutech Corp., Belmont, N.Y.).

[2] = biological target: T2, bovine aortic sarcolemma membrane vesicles ([^125 I]ChTX receptor) (Bos taurus, UniProt Q28204); assay: [^125 I]ChTX binding assay with aortic sarcolemma membrane vesicles; conditions: for effect on [^125 I]ChTX binding: 1 nM to 100 μM
T2 construct: bovine aortic s sarcolemma membrane vesicles; from tissue; host or cells: bovine aorta, sarcolemma membrane vesicles
T2 sequence (Q28204 whole entry): as above
T2 sequence (Q28067 whole entry partner): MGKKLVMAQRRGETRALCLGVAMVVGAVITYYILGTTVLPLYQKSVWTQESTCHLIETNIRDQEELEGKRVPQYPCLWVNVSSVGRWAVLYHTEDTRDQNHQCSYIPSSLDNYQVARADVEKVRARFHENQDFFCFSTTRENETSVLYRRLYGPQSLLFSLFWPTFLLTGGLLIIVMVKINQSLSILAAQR
Method: The interaction of [^125 I]ChTX with bovine aortic s sarcolemma membrane vesicles was determined under conditions as described (Vazquez et al., 1989, J. Biol. Chem. 264, 20902-20909). Briefly, sarcolemma membrane vesicles were incubated in 12×75 polystyrene tubes with ca. 25 pM [^125 I]ChTX (2200 Ci/mmol), in the absence or presence of test compound, in a media consisting of 20 mM NaCl, 20 mM Tris-HCl pH 7.4, 0.1% bovine serum albumin, 0.1% digitonin. Nonspecific binding was determined in the presence of 10 nM ChTX. Incubations were carried out at room temperature until ligand binding equilibrium is achieved at ca. 90 min. At the end of the incubation period, samples were diluted with 4 mL ice-cold 100 mM NaCl, 20 mM Hepes-Tris pH 7.4 and filtered through GF/C glass fiber filters that have been presoaked in 0.5% polyethylenimine. Filters were rinsed twice with 4 mL ice-cold quench solution. Radioactivity associated with filters was determined in a gamma counter. Specific binding data in the presence of each compound (difference between total binding and nonspecific binding) was assessed relative to an untreated control.

CC(C)=CCc1cccc2[nH]c3c(c12)CC1CCC2(O)C45OC4C4OC(C=C(C)C)OC(C)(C)C4OC5=CCC2(C)C31C (stereo not shown) [Compound C]
block of maxi-K channels / channel activity ([1]; 10 nM): rapid and complete block
reversal of block on washout ([1]; 10 nM, brief (~10 min) washout): not reversed
IC50 [1]: < 10 nM
inhibition at 10 µM ([2]; read-out: inhibition of [^125 I]ChTX binding): 29%

CC(C)(O)C1CC(O)C2(C(=O)O)C(CCC3(C)C2CCC2Cc4c([nH]c5ccccc45)C23C)O1 (stereo not shown) [Compound D, hydroxypaspalinic acid]
block of channel activity ([1]; 1 μM): complete block was not observed
block of maxi-K channels relative to Compound C [1]: weaker blockers of maxi-K channels than Compound C
inhibition at 0.01 µM ([1]; 10 nM, read-out: reduction in channel open probability): < 50%
IC50 [1]: ~1000 nM
effect on [^125 I]ChTX binding [2]: did not have any effect on binding

COC(=O)C12C(O)CC(C(C)(C)O)OC1CCC1(C)C2CCC2Cc3c([nH]c4ccccc34)C21C (stereo not shown) [Compound E, methyl hydroxypaspalinate]
effect on channel open probability ([1]; 1 μM): no significant effect on channel open probability
block of channel activity ([1]; 10 μM): incomplete block of channel activity
time over which block of channel activity slowly increased ([1]; 10 μM): 5 to 10 min
block of maxi-K channels relative to Compound C [1]: weaker blockers of maxi-K channels than Compound C
IC50 [1]: > 10000 nM
effect on [^125 I]ChTX binding [2]: did not affect [^125 I]ChTX binding

CC1(C)ON=C2C=C3C(CCC4(C)C3(O)CCC3Cc5c([nH]c6ccccc56)C34C)OC21 (stereo not shown) [Compound F, Paxizoline]
inhibition at 0.01 µM ([1]; 10 nM, read-out: decrease in channel activity): ~50%
IC50 [1]: ~10 nM
effect on amount of toxin bound to its receptor ([2]; 50 nM to 2 μM): small increase in the amount of toxin bound to its receptor
effect on toxin binding ([2]; concentrations above 5 μM): concentration-dependent inhibition of binding
